Reference: ChEMBL document CHEMBL1201862, “PubChem BioAssay data set” (2004)
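These data come from cells grown in 96-well plates and exposed to compound for 48 hours at five concentrations. GI50 = concentration required for 50% inhibition of growth.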 Activity calls are given as the source filed them. No stated cut-off is given here; in the data, active = GI50 up to about 1.1 µM and inactive = higher.

Tests used:
Test in all cases: NCI-60 cell line screen, 48 h
[1] = tested on: OVCAR-3
[2] = tested on: EKVX
[3] = tested on: OVCAR-8
[4] = tested on: SK-MEL-28
[5] = tested on: TK-10
[6] = tested on: MCF7
[7] = tested on: A549
[8] = tested on: PC-3
[9] = tested on: HOP-92
[10] = tested on: NCI-H23
[11] = tested on: UO-31
[12] = tested on: NCI-H226
[13] = tested on: Hs-578T
[14] = tested on: U-251
[15] = tested on: MDA-N
[16] = tested on: MDA-MB-435
[17] = tested on: SN12C
[18] = tested on: K562
[19] = tested on: 786-0
[20] = tested on: BT-549
[21] = tested on: NCI/ADR-RES
[22] = tested on: SW-620
[23] = tested on: SR
[24] = tested on: HCT-116
[25] = tested on: SK-MEL-5
[26] = tested on: KM12
[27] = tested on: HOP-62
[28] = tested on: M14
[29] = tested on: CAKI-1
[30] = tested on: SF-539
[31] = tested on: SNB-19
[32] = tested on: SF-268
[33] = tested on: HCC 2998
[34] = tested on: NCI-H522
[35] = tested on: ACHN
[36] = tested on: DU-145
[37] = tested on: LOX IMVI
[38] = tested on: MOLT-4
[39] = tested on: IGROV-1
[40] = tested on: HCT-15
[41] = tested on: UACC-62
[42] = tested on: NCI-H460
[43] = tested on: COLO 205
[44] = tested on: CCRF-CEM
[45] = tested on: T47D
[46] = tested on: HT-29
[47] = tested on: HL-60
[48] = tested on: UACC-257
[49] = tested on: SK-OV-3
[50] = tested on: SF-295
[51] = tested on: OVCAR-5
[52] = tested on: RXF 393
[53] = tested on: OVCAR-4
[54] = tested on: MDA-MB-231
[55] = tested on: SNB-75
[56] = tested on: RPMI-8226
[57] = tested on: SK-MEL-2
[58] = tested on: A498
[59] = tested on: Malme-3M

C=CCC1(c2ccc(OC)cc2)C=CC(=O)CC1 (configuration not stated)
GI50 [1]: > 100 µM (inactive)
GI50 [2]: > 100 µM (inactive)
GI50 [3]: > 100 µM (inactive)
GI50 [4]: > 100 µM (inactive)
GI50 [5]: > 100 µM (inactive)
GI50 [6]: > 100 µM (inactive)
GI50 [7]: > 100 µM (inactive)
GI50 [8]: 77.3 µM (inactive)
GI50 [9]: 44.9 µM (inactive)
GI50 [10]: > 100 µM (inactive)
GI50 [11]: > 100 µM (inactive)
GI50 [12]: > 100 µM (inactive)
GI50 [13]: 28.5 µM (inactive)
GI50 [14]: 52.4 µM (inactive)
GI50 [15]: 65.8 µM (inactive)
GI50 [16]: 66.4 µM (inactive)
GI50 [17]: > 100 µM (inactive)
GI50 [18]: 40.2 µM (inactive)
GI50 [19]: > 100 µM (inactive)
GI50 [20]: 70.6 µM (inactive)
GI50 [21]: 33.2 µM (inactive)
GI50 [22]: > 100 µM (inactive)
GI50 [23]: 44.3 µM (inactive)
GI50 [24]: > 100 µM (inactive)
GI50 [25]: > 100 µM (inactive)
GI50 [26]: > 100 µM (inactive)
GI50 [27]: > 100 µM (inactive)
GI50 [28]: > 100 µM (inactive)
GI50 [29]: > 100 µM (inactive)
GI50 [30]: > 100 µM (inactive)
GI50 [31]: > 100 µM (inactive)
GI50 [32]: > 100 µM (inactive)
GI50 [33]: > 100 µM (inactive)
GI50 [34]: 77.1 µM (inactive)
GI50 [35]: > 100 µM (inactive)
GI50 [36]: > 100 µM (inactive)
GI50 [37]: > 100 µM (inactive)
GI50 [38]: 28.6 µM (inactive)
GI50 [39]: > 100 µM (inactive)
GI50 [40]: 72.3 µM
GI50 [41]: 68.7 µM (inactive)
GI50 [42]: > 100 µM (inactive)
GI50 [43]: > 100 µM (inactive)
GI50 [44]: 24.3 µM (inactive)
GI50 [45]: > 100 µM (inactive)
GI50 [46]: > 100 µM (inactive)
GI50 [47]: 38.9 µM (inactive)
GI50 [48]: > 100 µM (inactive)
GI50 [49]: > 100 µM (inactive)
GI50 [50]: > 100 µM (inactive)
GI50 [51]: > 100 µM (inactive)
GI50 [52]: 94 µM (inactive)
GI50 [53]: > 100 µM (inactive)
GI50 [54]: 92.7 µM (inactive)
GI50 [55]: 19.4 µM (inactive)

COc1ccccc1/C=C/c1nc2ccccc2o1
GI50 [1]: > 10 µM (inactive)
GI50 [2]: > 10 µM (inactive)
GI50 [3]: > 10 µM (inactive)
GI50 [4]: > 10 µM (inactive)
GI50 [5]: > 10 µM (inactive)
GI50 [6]: > 10 µM (inactive)
GI50 [7]: > 10 µM (inactive)
GI50 [8]: > 10 µM (inactive)
GI50 [9]: 6.19 µM (inactive)
GI50 [10]: > 10 µM (inactive)
GI50 [12]: > 10 µM (inactive)
GI50 [13]: > 10 µM (inactive)
GI50 [14]: > 10 µM (inactive)
GI50 [15]: > 10 µM (inactive)
GI50 [16]: > 10 µM (inactive)
GI50 [17]: > 10 µM (inactive)
GI50 [18]: > 10 µM (inactive)
GI50 [19]: > 10 µM (inactive)
GI50 [56]: > 10 µM (inactive)
GI50 [20]: > 10 µM (inactive)
GI50 [21]: > 10 µM (inactive)
GI50 [22]: > 10 µM (inactive)
GI50 [23]: > 10 µM (inactive)
GI50 [24]: > 10 µM (inactive)
GI50 [25]: > 10 µM (inactive)
GI50 [26]: > 10 µM (inactive)
GI50 [27]: > 10 µM (inactive)
GI50 [57]: > 10 µM (inactive)
GI50 [28]: > 10 µM (inactive)
GI50 [29]: > 10 µM (inactive)
GI50 [30]: > 10 µM (inactive)
GI50 [31]: > 10 µM (inactive)
GI50 [32]: > 10 µM (inactive)
GI50 [33]: > 10 µM (inactive)
GI50 [34]: > 10 µM (inactive)
GI50 [35]: > 10 µM (inactive)
GI50 [36]: > 10 µM (inactive)
GI50 [37]: > 10 µM (inactive)
GI50 [58]: > 10 µM (inactive)
GI50 [38]: > 10 µM (inactive)
GI50 [39]: > 10 µM (inactive)
GI50 [40]: > 10 µM
GI50 [41]: > 10 µM (inactive)
GI50 [59]: > 10 µM (inactive)
GI50 [42]: > 10 µM (inactive)
GI50 [43]: > 10 µM (inactive)
GI50 [44]: > 10 µM (inactive)
GI50 [45]: > 10 µM (inactive)
GI50 [46]: > 10 µM (inactive)
GI50 [48]: > 10 µM (inactive)
GI50 [49]: > 10 µM (inactive)
GI50 [50]: > 10 µM (inactive)
GI50 [51]: > 10 µM (inactive)
GI50 [52]: > 10 µM (inactive)
GI50 [53]: > 10 µM (inactive)
GI50 [54]: > 10 µM (inactive)
GI50 [55]: > 10 µM (inactive)
